Laboratory results reported in paper PMC4821887, “Identification of chemicals that mimic transcriptional changes associated with autism, brain aging and neurodegeneration” (Nature Communications, 2016).
Read-outs that look alike come from different tables or passages of the source.

How the values were obtained:
[1] = test system: mitochondrial superoxide in cortical neurons; assay: Mitochondrial superoxide detection (MitoSOX Red live-cell imaging); format: cell-based, mouse; details: Mus musculus, Cortical neurone, read-out: Superoxide production, concentration for half-maximum response (EC50)
[2] = test system: mouse cortical neuron-enriched cultures; assay: RNA-seq transcriptional screen with hierarchical clustering and cluster membership; format: cell-based; details: for Chemical cluster assigned by gene expression: 24 h at non-toxic concentration, hierarchical clustering of 5,121 variably expressed genes; for Transcriptional change relative to the cluster 2 signature: RNA-seq, Supplementary Fig. 9
Protocol: Cultures were treated with the non-cytotoxic dose of each chemical, by exchanging half of the original medium with chemicals at 2 × concentration in prewarmed feeding medium, on DIV 7 for 24 h in 12-well plates at a density of 5 × 10^5 cells per well. RNA was isolated using RNeasy plus mini kit (Cat. #74134, Qiagen). RNA yield and quality were determined using a Nanodrop 1000 Spectrophotometer (Thermo Scientific). Samples were further assessed for quality using either an Agilent Bioanalyzer 2100 or TapeStation 2200 to obtain a RIN. RIN values exceeding 7 were used for sequencing. RNA samples were used to generate and barcode complementary DNA libraries using the TruSeq RNA Library Preparation Kit at the UNC High Throughput Sequencing Facility. Pools of 24 multiplexed samples were sequenced per lane on an Illumina HiSeq 2500 using 50-bp paired-end reads.
RNA-seq reads were filtered using TagDust and aligned to the reference mouse genome (mm9) with TopHat using default parameters. Reads aligning to ribosomal RNA genes were removed. Transcript abundance was estimated by computing Reads per kilobase per million mapped reads (RPKM) using RefSeq gene models aggregated by gene symbol. For differential expression analyses, raw counts over RefSeq exons were used, and then were compared across samples using DESeq[62].
RPKMs for all RefSeq genes and all samples were filtered such that a given gene had >90% of samples with RPKM >0 and gene length exceeded 500 bp. RPKMs were then log10-transformed, quantile-normalized, median-centred, and the effects due to culture or sequencing batch were removed using a mixed model analysis of variance. This batch correction step was performed on individual experiments rather than chemical–vehicle ratios to reduce the effects due to variations in culture composition as well as batch-to-batch variations at the level of sequencing. Genes were then median-centred again, and filtered such that their s.d. exceeded 0.1. Chemical replicates were then combined using the median. Classes of chemicals were then discovered in two ways. First, we performed hierarchical clustering using average linkage and Pearson correlation distance measures. The boundaries of the discovered classes from clustering were set by computing pairwise Spearman correlations for all samples. A given cluster had to have at least three members with the minimum pairwise Spearman correlation coefficient exceeding 0.2, though cluster members often exceeded a correlation of 0.6 (Supplementary Fig. 5c,d). Seven chemical clusters were discovered, however one was removed due to failing to have a positive silhouette width, a metric of cluster robustness. These definitions enabled the three positive control topoisomerase inhibitors to form a cohesive group of chemicals with known structural and functional similarity (cluster 5). None of the culture or sequencing batches contributed to the formation of any one of the final six clusters (Supplementary Fig. 4).

[3] = test system: mouse cortical neuron cultures

Molecule | % Dead cells (vehicle subtracted) [3] | also measured
Cc1nn(C)c(Oc2ccccc2)c1C=NOCc1ccc(C(=O)OC(C)(C)C)cc1 [fenpyroximate] | – | EC50 [1]: 7 nM; Chemical cluster assigned by gene expression [2]: cluster 2
CON=C(C(=O)OC)c1ccccc1CON=C(C)c1cccc(C(F)(F)F)c1 [trifloxystrobin] | – | % Dead cells (vehicle subtracted) ([3]; mouse, 24 h, 10 µM): 7.404%; Chemical cluster assigned by gene expression [2]: cluster 2
CO/C(=C/C(N)=O)[C@H](C)[C@H](/C=C/c1csc(-c2csc([C@@H](C)/C=C/C=C/C(C)C)n2)n1)OC [myxothiazol, reference compound] | – | Transcriptional change relative to the cluster 2 signature [2]: altered transcription in a manner consistent with chemicals in cluster 2
CC(C)(C)c1ccc(CSc2cnn(C(C)(C)C)c(=O)c2Cl)cc1 [pyridaben] | – | Chemical cluster assigned by gene expression [2]: cluster 2
Abamectin | 4.666% | –
Cc1ccn2nc(S(=O)(=O)Nc3c(F)cccc3F)nc2n1 [Flumetsulam] | – | % Dead cells (vehicle subtracted) ([3]; mouse, 24 h, 10 µM): 0.4495%
CCOP(=S)(OCC)Oc1cc(C)nc(C(C)C)n1 [Diazinon] | 0.1738% | –
c1ccc(Nc2ccccc2)cc1 [Diphenylamine] | – | % Dead cells (vehicle subtracted) ([3]; mouse, 24 h, 10 µM): 2.557%
CC(C)(C)C(=O)C(Oc1ccc(Cl)cc1)n1cncn1 (stereo not drawn) [Triadimefon] | -0.7492% | –
CN(C)NC(=O)CCC(=O)O [Daminozide] | -0.7321% | –
COP(=O)(OC)OC=C(Cl)Cl [Dichlorvos] | 0.4159% | –
NCCO.O=C(O)c1nc(Cl)ccc1Cl [Clopyralid-olamine] | 0.5713% | –
Cc1cnc(C2=NC(C)(C(C)C)C(=O)N2)c(C(=O)O)c1 (stereo not drawn) | -0.5785% | –
O=C1C2CC=CCC2C(=O)N1SC(Cl)(Cl)Cl (stereo not drawn) [Captan] | 2.374% | –
CN/C(=N\[N+](=O)[O-])NCc1cnc(Cl)s1 [Clothianidin] | -2.188% | –
CCOC(=O)C(Cl)Cc1cc(-n2nc(C)n(C(F)F)c2=O)c(F)cc1Cl (stereo not drawn) [Carfentrazone-ethyl] | 9.785% | –
CCN(CC)c1nc(C)cc(OP(=S)(OC)OC)n1 [Pirimiphos-methyl] | -0.1826% | –
CC1(C)C(C=C(Cl)Cl)C1C(=O)OC(C#N)c1ccc(F)c(Oc2ccccc2)c1 (stereo not drawn) [Cyfluthrin (Baythroid)] | -3.677% | –
CCCCOC(=O)[C@@H](C)Oc1ccc(Oc2ccc(C(F)(F)F)cn2)cc1 | 0.5693% | –
CCC(C)n1c(=O)[nH]c(C)c(Br)c1=O (stereo not drawn) [Bromacil] | 5.5524% | –
CCCCOCN(C(=O)CCl)c1c(CC)cccc1CC [Butachlor] | – | % Dead cells (vehicle subtracted) ([3]; mouse, 24 h, 10 µM): 0.2625%
CCCCN(CC)c1c([N+](=O)[O-])cc(C(F)(F)F)cc1[N+](=O)[O-] [Benfluralin [Benefin]] | -1.412% | –

Molecule | % Dead cells (vehicle subtracted) [3] | also measured
C=CC1(C)OC(=O)N(c2cc(Cl)cc(Cl)c2)C1=O (stereo not drawn) [Vinclozolin] | – | % Dead cells (vehicle subtracted) ([3]; mouse, 24 h, 10 µM): -1.854%
Oc1ccc(C(c2ccc(O)cc2)C(Cl)(Cl)Cl)cc1 | 1.986% | –
CCc1cnc(C2=NC(C)(C(C)C)C(=O)N2)c(C(=O)O)c1 (stereo not drawn) [Imazethapyr] | – | % Dead cells (vehicle subtracted) ([3]; mouse, 24 h, 10 µM): 4.704%
CC(Oc1cccc(Cl)c1)C(=O)O (stereo not drawn) [Cloprop] | -3.007% | –
CCCSP(=O)(OCC)Oc1ccc(Br)cc1Cl (stereo not drawn) [Profenofos] | -2.76% | –
COc1ccc(C(c2ccc(OC)cc2)C(Cl)(Cl)Cl)cc1 [Methoxychlor] | -0.6222% | –
C=C(C)CN(CC)c1c([N+](=O)[O-])cc(C(F)(F)F)cc1[N+](=O)[O-] [Ethalfluralin] | – | % Dead cells (vehicle subtracted) ([3]; mouse, 24 h, 10 µM): 1.146%
CC(C)C1(C)N=C(c2nc3ccccc3cc2C(=O)O)NC1=O (stereo not drawn) [Imazaquin] | -2.73% | –
CN(C)C(=S)SSC(=S)N(C)C [Thiram] | 0.7821% | –
CCCOc1nn(C(=O)[N-]S(=O)(=O)c2ccccc2C(=O)OC)c(=O)n1C.[Na+] [Propoxycarbazone-sodium] | -1.764% | –
CCOC(=O)C(C)OC(=O)c1cc(Oc2ccc(C(F)(F)F)cc2Cl)ccc1[N+](=O)[O-] (stereo not drawn) [Lactofen] | – | % Dead cells (vehicle subtracted) ([3]; mouse, 24 h, 10 µM): -1.539%
Cc1c(COC(=O)[C@@H]2[C@H](/C=C(\Cl)C(F)(F)F)C2(C)C)cccc1-c1ccccc1 (racemic) [Bifenthrin] | 0.2358% | –
CCOc1cc(C(C)(C)C)ccc1C1COC(c2c(F)cccc2F)=N1 (stereo not drawn) [Etoxazole] | -1.186% | –
CCCC1COC(Cn2cncn2)(c2ccc(Cl)cc2Cl)O1 (stereo not drawn) [Propiconazole] | 0.7517% | –
CC(C)N1C(=O)c2ccccc2NS1(=O)=O [Bentazone] | -0.5905% | –
CCOP(=S)(OCC)SCCSCC [Disulfoton] | 2.557% | –
CCOP(=S)(OCC)Oc1nc(Cl)n(C(C)C)n1 [Isazofos] | -3.842% | –
Mancozeb | 1.017% | –
CCOc1nc(F)cc2nc(S(=O)(=O)Nc3c(Cl)cccc3Cl)nn12 [Diclosulam] | 0.003204% | –
Cc1cc(C)nc(Nc2ccccc2)n1 [Pyrimethanil] | – | % Dead cells (vehicle subtracted) ([3]; mouse, 24 h, 10 µM): -4.407%
COP(=O)(NC(C)=O)SC (stereo not drawn) [Acephate] | -1.8111% | –
CC(C)C1(C)N=C(c2ncccc2C(=O)O)NC1=O (stereo not drawn) [Imazapyr] | – | % Dead cells (vehicle subtracted) ([3]; mouse, 24 h, 10 µM): 1.122%

Molecule | % Dead cells (vehicle subtracted) [3] | also measured
CCOP(=S)(OCC)Oc1ccc2c(C)c(Cl)c(=O)oc2c1 [Coumaphos] | 0.01959% | –
CC1=NNC(=O)N(/N=C/c2cccnc2)C1 | -2.3223% | –
CO/N=C(/C(=O)OC)c1ccccc1COc1ccccc1C [kresoxim-methyl] | – | Transcriptional change relative to the cluster 2 signature [2]: altered transcription in a manner consistent with chemicals in cluster 2
CS(=O)(=O)c1ccc(C(=O)C2C(=O)CCCC2=O)c([N+](=O)[O-])c1 [Mesotrione] | 0.1871% | –
COC(=O)C=C(C)OP(=O)(OC)OC | -2.439% | –
CCC(=O)Nc1ccc(Cl)c(Cl)c1 [Propanil] | -3.018% | –
O=C(NC(=O)c1c(F)cccc1F)Nc1ccc(OC(F)(F)C(F)OC(F)(F)F)c(Cl)c1 (stereo not drawn) [Novaluron] | -1.142% | –
CCOP(=S)(OCC)OC(Cl)C(Cl)(Cl)Cl (stereo not drawn) [Chlorethoxyfos] | 0.5415% | –
COc1nc(NC(C)C)nc(NC(C)C)n1 | -1.14% | –
CN(C)C(=O)Nc1ccc(Cl)c(Cl)c1 [Diuron] | -0.632% | –
CCN(Cc1c(F)cccc1Cl)c1c([N+](=O)[O-])cc(C(F)(F)F)cc1[N+](=O)[O-] [Flumetralin] | 1.368% | –
O=C(O)c1cc(Oc2ccc(C(F)(F)F)cc2Cl)ccc1[N+](=O)[O-] [Acifluorfen] | 3.873% | –
C#CC(C)(C)NC(=O)c1cc(Cl)cc(Cl)c1 [Propyzamide] | 1.57% | –
C#CCOC(=O)[C@@H](C)Oc1ccc(Oc2ncc(Cl)cc2F)cc1 [Clodinafop-propargyl] | – | % Dead cells (vehicle subtracted) ([3]; mouse, 24 h, 10 µM): -2.625%
CCCCOC(=O)C(C)Oc1ccc(Oc2ccc(C(F)(F)F)cn2)cc1 (stereo not drawn) [Fluazifop-butyl] | – | % Dead cells (vehicle subtracted) ([3]; mouse, 24 h, 0.01 µM): 0.215%; % Dead cells (vehicle subtracted) ([3]; mouse, 24 h, 0.1 µM): -0.165%; % Dead cells (vehicle subtracted) ([3]; mouse, 24 h, 1 µM): 23.9839%; % Dead cells (vehicle subtracted) ([3]; mouse, 24 h, 10 µM): 7.788%
S=C1NCCN1 [Ethylenethiourea (2-Imidazolidinethione)] | -0.5482% | –
O=[N+]([O-])NC1=NCCN1Cc1ccc(Cl)nc1 [Imidacloprid] | – | % Dead cells (vehicle subtracted) ([3]; mouse, 24 h, 10 µM): -3.0763%
COc1nc(C)nc(NC(=O)NS(=O)(=O)c2ccccc2C(=O)O)n1 [Metsulfuron (Ally)] | 1.078% | –
C[C@@]1(c2ccc(Oc3ccccc3)cc2)OC(=O)N(Nc2ccccc2)C1=O (racemic) [famoxadone] | 1.213% | Chemical cluster assigned by gene expression [2]: cluster 2
O=[N+]([O-])c1c(Cl)c(Cl)c(Cl)c(Cl)c1Cl [Quintozene] | -2.206% | –
CC1(C)CCC(=Cc2ccc(Cl)cc2)C1(O)Cn1cncn1 (stereo not drawn) [Triticonazole] | – | % Dead cells (vehicle subtracted) ([3]; mouse, 24 h, 10 µM): 0.8709%
COP(=O)(OC)O/C(C)=C/C(=O)N(C)C [Dicrotophos] | -0.1238% | –
